Assay results from US20230059487A1, “PHOTOSENSITIVE MATERIAL, TRANSFER FILM, MANUFACTURING METHOD OF CIRCUIT WIRING, MANUFACTURING METHOD OF TOUCH PANEL, AND PATTERN FORMING METHOD” (FUJIFILM Corporation, priority 2020, published 2023).
Like-named read-outs stand apart in the source and are kept apart here. Blank lines part the entries; values can stand above or below the compound they belong to.

Columns and labels:
[1] = Measurement of pKa of compound β in ground state (acid titration); format: physicochemical
Text: (Measurement of pKa of Compound β in Ground State)

[2] = Measurement of molar absorption coefficients ε365, ε313 and ε365/ε313 in acetonitrile; format: physicochemical
Text: (Measurement and Evaluation of ε365 and ε365/ε313)
The ε365 and ε313 of the compound β are molar absorption coefficients measured by dissolving the compound β in acetonitrile. In a case where the compound β was insoluble in acetonitrile, a solvent for dissolving the compound β may be appropriately changed.

[3] = molar absorption coefficient at 365 nm in acetonitrile

SMILES: CCCCc1ncc(C)c2ccccc12 [Example 1-n-Butyl-4-methylisoquinoline, 1-n-Butyl-4-methylisoquinoline]
- ε365 of Compound β [2, 3]: <10 (cm mol/L)^−1

SMILES: COc1cc(C)nc2ccccc12 [Example 2-Methyl-4-methoxyquinoline, 2-Methyl-4-methoxyquinoline]
- ε365 of Compound β [2, 3]: <10 (cm mol/L)^−1

SMILES: Clc1ccccn1 [Example 2-Chloropyridine, 2-Chloropyridine]
- ε365 of Compound β [2, 3]: <10 (cm mol/L)^−1

SMILES: Nc1ccncc1 [Example 4-Aminopyridine, 4-Aminopyridine]
- ε365 of Compound β [2, 3]: <100 (cm mol/L)^−1

SMILES: Cc1cc(C)c2ccccc2n1 [2,4-Dimethylquinolme]
- ε365 of Compound β [2, 3]: <10 (cm mol/L)^−1

SMILES: Cc1c2ccccc2nc2ccccc12 [Example 9-Methylacridine, 9-Methylacridine]
- ε365 of Compound β [2, 3]: 6300 (cm mol/L)^−1

SMILES: c1ccncc1 [Example B11, pyridine]
- ε365 of Compound β [2, 3]: <10 (cm mol/L)^−1

SMILES: CCCCc1nccc2ccccc12 [Example 1-n-Butylisoquinoline, 1-n-Butylisoquinoline]
- ε365 of Compound β [2, 3]: <10 (cm mol/L)^−1

SMILES: Cc1cc(C)c2c(C)cc(C)nc2c1 [2,4,5,7-Tetramethylquinoline]
- ε365 of Compound β [2, 3]: <10 (cm mol/L)^−1

SMILES: c1ccc(-c2c3ccccc3nc3ccccc23)cc1 [Example 9-Phenylacridine, 9-Phenylacridine]
- ε365 of Compound β [2]: >10000
- ε365 of Compound β ([2]; molar absorption coefficient at 365 nm): >10000
- ε365 of Compound β [2, 3]: >10000 (cm mol/L)^−1

More lines, now with the values ahead:

- pKa of Compound β in ground state [1]: 4.67
- pKa of Compound β in ground state ([1]; compound β alone): 4.67
- pKa of Compound β in ground state ([1]; compound β alone, ground state): 4.67
- pKa of Compound β in ground state ([1]; compound β in ground state): 4.67
- pKa of Compound β in ground state ([1]; compound β, ground state): 4.67
- pKa of Compound β in ground state ([1]; ground state): 4.67
- ε365 of Compound β [2, 3]: 4900 (cm mol/L)^−1
SMILES: c1ccc2nc3ccccc3cc2c1 [Example B3, acridine]

- pKa of Compound β in ground state [1]: 4.69
- pKa of Compound β in ground state ([1]; compound β alone): 4.69
- pKa of Compound β in ground state ([1]; compound β alone, ground state): 4.69
- pKa of Compound β in ground state ([1]; compound β in ground state): 4.69
- pKa of Compound β in ground state ([1]; compound β, ground state): 4.69
- pKa of Compound β in ground state ([1]; ground state): 4.69
- ε365 of Compound β [2, 3]: <10 (cm mol/L)^−1
SMILES: c1ccc2cnccc2c1 [Example B1, isoquinoline]

- ε365 of Compound β ([2]; molar absorption coefficient at 365 nm in acetonitrile, listed as 2,4-Dimethylquinoline): <10 (cm mol/L)^−1
SMILES: Cc1cc(C)c2ccccc2n1 [Example B12, 2,4-dimethylquinoline]

- pKa of Compound β in ground state [1]: 4.15
- pKa of Compound β in ground state ([1]; compound β alone): 4.15
- pKa of Compound β in ground state ([1]; compound β alone, ground state): 4.15
- pKa of Compound β in ground state ([1]; compound β in ground state): 4.15
- pKa of Compound β in ground state ([1]; compound β, ground state): 4.15
- pKa of Compound β in ground state ([1]; ground state): 4.15
- ε365 of Compound β [2, 3]: <10 (cm mol/L)^−1
SMILES: c1ccc2ncccc2c1 [Example B2, quinoline]

- ε365 of Compound β [2, 3]: <10 (cm mol/L)^−1
SMILES: Cc1nccc2ccccc12 [Example B6, 1-Me-isoquinoline]
